US4542144A, “Anticonvulsant N-aryl-N'-(2-thiazolidinylidene)ureas” (McNeilab Inc., priority 1983, dated 1985)

System: tonic extensor seizure
Assay: Maximal Electroshock (MES) test, block of tonic extensor seizure, 45' post dose p.o.
Assay type: in vivo, mice
Parameters: key to MES test results (IA): IA: Inactive
Conditions: for MES test results (IA) / ED50 / % block (MES test) / MES test results (activity in words): mice, 45' post dose; for ED50: Mus musculus, po, 0.75 h; for potency of 3-Me compound relative to 3-H compound (more potent than 3-H): MES ED50, Compd. No. 18 vs No. 17, No. 28 vs No. 27
Source text: Activity in the MES test, indicating anticonvulsant activity, is characterized by a block of the tonic extensor seizure caused by applying an electric shock to mice via corneal electrodes as described in Swinyard et al., J. Pharmacol. Exp. Ther., 106, 319-330 (1952) and recorded as % block. A more recent description of current practice in anticonvulsant drug screening has also been reported by Swinyard et al., Epilepsia, 19, 409-428 (1978).

[1] = Table II, 200 mg/kg p.o., only dose tested

Cc1ccc(NC(=O)N=C2NCCS2)cc1C [No. 22a, N-(3,4-dimethylphenyl)-N'-(2-thiazolidinylidene)urea]
MES test results (IA) (Table II, p.o., dose not given): IA

O=C(N=C1NCCS1)Nc1ccccc1 [Table I No. 1, reference compound]
ED50 (Table I): > 200 mg/kg

Cc1ccccc1NC(=O)N=C1NCCS1 [Table I No. 2, reference compound]
ED50 (Table I): 232 mg/kg
% block (MES test) (Table I, 200 mg/kg p.o.): 30%

CN1CCSC1=NC(=O)Nc1ccccc1 [compound 1]
MES test results (IA) (Table II, 100 mg/kg p.o., only dose tested): IA

Cc1ccccc1NC(=O)N=C1SCCN1C [compound 2]
ED50 (Table II): 4.8 mg/kg

Cc1cccc(NC(=O)N=C2SCCN2C)c1 [compound 3]
ED50 (Table II): < 200 mg/kg
% block (MES test) [1]: 70%

Cc1ccc(NC(=O)N=C2SCCN2C)cc1 [compound 4]
MES test results (IA) (Table II, 200 mg/kg p.o.): IA

CN1CCSC1=NC(=O)Nc1ccccc1Cl [compound 5]
ED50 (Table II): < 200 mg/kg
% block (MES test) [1]: 70%
MES test results (activity in words) [1]: Active

CN1CCSC1=NC(=O)Nc1cccc(Cl)c1 [compound 6]
MES test results (IA) (Table II, 200 mg/kg p.o.): IA

CN1CCSC1=NC(=O)Nc1ccc(Cl)cc1 [compound 7]
MES test results (IA) (Table II, 200 mg/kg p.o.): IA

COc1ccccc1NC(=O)N=C1SCCN1C [compound 8]
ED50 (Table II): 235 mg/kg

COc1cccc(NC(=O)N=C2SCCN2C)c1 [compound 9]
ED50 (Table II): < 200 mg/kg
% block (MES test) [1]: 80%
MES test results (activity in words) [1]: Active

COc1ccc(NC(=O)N=C2SCCN2C)cc1 [compound 10]
MES test results (IA) (Table II, 200 mg/kg p.o.): IA

CN1CCSC1=NC(=O)Nc1ccccc1C(F)(F)F [compound 11]
ED50 (Table II): 92.2 mg/kg

CN1CCSC1=NC(=O)Nc1cccc(C(F)(F)F)c1 [compound 12]
MES test results (IA) (Table II, 200 mg/kg p.o.): IA

CN1CCSC1=NC(=O)Nc1ccc(C(F)(F)F)cc1 [compound 13]
MES test results (IA) (Table II, 200 mg/kg p.o.): IA

CN1CCSC1=NC(=O)Nc1ccc([N+](=O)[O-])cc1 [compound 14]
MES test results (IA) (Table II, 200 mg/kg p.o.): IA

CCc1cccc(CC)c1NC(=O)N=C1SCCN1C [compound 15]
ED50 (Table II): 14.2 mg/kg

CCc1cccc(C)c1NC(=O)N=C1SCCN1C [compound 16]
ED50 (Table II): 17.4 mg/kg

Cc1cccc(C)c1NC(=O)N=C1NCCS1 [compound 17]
ED50 (Table II): 31 mg/kg

Cc1cccc(C)c1NC(=O)N=C1SCCN1C [compound 18]
potency of 3-Me compound relative to 3-H compound (more potent than 3-H): 2.6 ×
ED50 (Table II): 11.8 mg/kg

Cc1ccc(C)c(NC(=O)N=C2SCCN2C)c1 [compound 19]
ED50 (Table II): 66.1 mg/kg

Cc1ccc(NC(=O)N=C2SCCN2C)c(C)c1 [compound 20]
ED50 (Table II): 178 mg/kg

Cc1cccc(NC(=O)N=C2SCCN2C)c1C [compound 21]
ED50 (Table II): 37.2 mg/kg

Cc1ccc(NC(=O)N=C2SCCN2C)cc1C [compound 22]
ED50 (Table II): > 200 mg/kg
% block (MES test) (Table II, p.o., dose not given): 10%

Cc1cc(C)cc(NC(=O)N=C2SCCN2C)c1 [compound 23]
MES test results (IA) (Table II, 200 mg/kg p.o.): IA

CN1CCSC1=NC(=O)Nc1cc(C(F)(F)F)cc(C(F)(F)F)c1 [compound 24]
MES test results (IA) (Table II, 200 mg/kg p.o.): IA

Cc1cc(C)c(NC(=O)N=C2SCCN2C)c(C)c1 [compound 25]
ED50 (Table II): 66.5 mg/kg

Cc1cccc(Cl)c1NC(=O)N=C1SCCN1C [compound 26]
ED50 (Table II): 15.3 mg/kg

O=C(N=C1NCCS1)Nc1c(Cl)cccc1Cl [compound 27]
ED50 (Table II): 70.7 mg/kg

CN1CCSC1=NC(=O)Nc1c(Cl)cccc1Cl [compound 28]
potency of 3-Me compound relative to 3-H compound (more potent than 3-H): 4 ×
ED50 (Table II): 17.4 mg/kg

CN1CCSC1=NC(=O)Nc1c(F)cccc1F [compound 29]
ED50 (Table II): 22.7 mg/kg

CN1CCSC1=NC(=O)Nc1c(Br)cccc1Br [compound 30]
ED50 (Table II): 69.6 mg/kg

CN1CCSC1=NC(=O)Nc1c(Br)cc(F)cc1Br [compound 31]
ED50 (Table II): < 200 mg/kg
% block (MES test) [1]: 80%
MES test results (activity in words) [1]: Active

CN1CCSC1=NC(=O)Nc1c(Cl)cc(Cl)cc1Cl [compound 32]
MES test results (IA) (Table II, 200 mg/kg p.o.): IA

COc1cccc(OC)c1NC(=O)N=C1SCCN1C [compound 33]
ED50 (Table II): 41.2 mg/kg

COc1ccc(NC(=O)N=C2SCCN2C)cc1OC [compound 34]
ED50 (Table II): > 200 mg/kg
% block (MES test) [1]: 20%
